Measurements taken from ChEMBL document CHEMBL3870309, “Identification of new potent phthalazine derivatives with VEGFR-2 and EGFR kinase inhibitory activity” (Eur J Med Chem, 2016).

Tests used:
[1] = biological target: Epidermal growth factor receptor (Homo sapiens, UniProt P00533); assay: Inhibition of EGFR (unknown origin) using poly (Glu, Tyr) 4:1 as substrate after 1 hr by ELISA
[2] = biological target: Vascular endothelial growth factor receptor 2 (Homo sapiens, UniProt P35968); assay: Inhibition of VEGFR-2 (unknown origin) using poly (Glu, Tyr) 4:1 as substrate after 1 hr by ELISA
Vascular endothelial growth factor receptor 2, sequence (P35968 whole entry): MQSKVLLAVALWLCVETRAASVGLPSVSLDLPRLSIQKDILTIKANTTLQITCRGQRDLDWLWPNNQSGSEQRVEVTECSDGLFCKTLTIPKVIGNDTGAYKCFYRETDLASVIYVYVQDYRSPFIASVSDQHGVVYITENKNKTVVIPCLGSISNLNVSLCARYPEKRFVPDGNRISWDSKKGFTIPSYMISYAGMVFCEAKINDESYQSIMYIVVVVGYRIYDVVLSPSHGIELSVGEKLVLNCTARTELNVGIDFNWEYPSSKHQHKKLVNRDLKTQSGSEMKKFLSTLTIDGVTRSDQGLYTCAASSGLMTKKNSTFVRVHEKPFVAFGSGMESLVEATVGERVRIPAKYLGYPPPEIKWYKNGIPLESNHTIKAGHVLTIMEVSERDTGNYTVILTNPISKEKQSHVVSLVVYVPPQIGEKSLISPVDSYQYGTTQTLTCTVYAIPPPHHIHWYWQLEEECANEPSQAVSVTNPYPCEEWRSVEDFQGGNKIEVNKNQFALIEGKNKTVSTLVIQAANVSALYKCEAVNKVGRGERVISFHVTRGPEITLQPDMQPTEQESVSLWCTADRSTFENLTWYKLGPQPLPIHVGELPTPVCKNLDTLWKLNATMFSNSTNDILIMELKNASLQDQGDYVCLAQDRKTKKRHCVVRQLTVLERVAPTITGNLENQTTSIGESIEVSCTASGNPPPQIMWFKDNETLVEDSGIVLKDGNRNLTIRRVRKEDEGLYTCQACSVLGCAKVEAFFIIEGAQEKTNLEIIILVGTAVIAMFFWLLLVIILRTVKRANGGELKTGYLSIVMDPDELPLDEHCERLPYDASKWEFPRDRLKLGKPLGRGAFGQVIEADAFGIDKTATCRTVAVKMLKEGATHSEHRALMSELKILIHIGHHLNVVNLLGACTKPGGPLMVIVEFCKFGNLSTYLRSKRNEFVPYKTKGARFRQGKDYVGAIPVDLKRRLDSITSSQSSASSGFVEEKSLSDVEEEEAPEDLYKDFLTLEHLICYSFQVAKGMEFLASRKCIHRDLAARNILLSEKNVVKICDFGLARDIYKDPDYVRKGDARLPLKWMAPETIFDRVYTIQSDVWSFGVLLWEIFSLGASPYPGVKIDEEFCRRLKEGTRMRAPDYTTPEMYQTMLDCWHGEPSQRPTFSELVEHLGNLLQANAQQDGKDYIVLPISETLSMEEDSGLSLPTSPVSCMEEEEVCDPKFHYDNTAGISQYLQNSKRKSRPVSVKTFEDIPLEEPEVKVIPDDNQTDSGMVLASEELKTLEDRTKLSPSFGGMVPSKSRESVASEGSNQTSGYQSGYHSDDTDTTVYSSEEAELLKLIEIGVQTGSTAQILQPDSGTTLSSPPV

cells = conditions: Homo sapiens, HeLa, 72 h
Description: Antiproliferative activity against human HeLa cells after 72 hrs by Sulforhodamine B-stain assay

Epidermal growth factor receptor, sequence (P00533 whole entry): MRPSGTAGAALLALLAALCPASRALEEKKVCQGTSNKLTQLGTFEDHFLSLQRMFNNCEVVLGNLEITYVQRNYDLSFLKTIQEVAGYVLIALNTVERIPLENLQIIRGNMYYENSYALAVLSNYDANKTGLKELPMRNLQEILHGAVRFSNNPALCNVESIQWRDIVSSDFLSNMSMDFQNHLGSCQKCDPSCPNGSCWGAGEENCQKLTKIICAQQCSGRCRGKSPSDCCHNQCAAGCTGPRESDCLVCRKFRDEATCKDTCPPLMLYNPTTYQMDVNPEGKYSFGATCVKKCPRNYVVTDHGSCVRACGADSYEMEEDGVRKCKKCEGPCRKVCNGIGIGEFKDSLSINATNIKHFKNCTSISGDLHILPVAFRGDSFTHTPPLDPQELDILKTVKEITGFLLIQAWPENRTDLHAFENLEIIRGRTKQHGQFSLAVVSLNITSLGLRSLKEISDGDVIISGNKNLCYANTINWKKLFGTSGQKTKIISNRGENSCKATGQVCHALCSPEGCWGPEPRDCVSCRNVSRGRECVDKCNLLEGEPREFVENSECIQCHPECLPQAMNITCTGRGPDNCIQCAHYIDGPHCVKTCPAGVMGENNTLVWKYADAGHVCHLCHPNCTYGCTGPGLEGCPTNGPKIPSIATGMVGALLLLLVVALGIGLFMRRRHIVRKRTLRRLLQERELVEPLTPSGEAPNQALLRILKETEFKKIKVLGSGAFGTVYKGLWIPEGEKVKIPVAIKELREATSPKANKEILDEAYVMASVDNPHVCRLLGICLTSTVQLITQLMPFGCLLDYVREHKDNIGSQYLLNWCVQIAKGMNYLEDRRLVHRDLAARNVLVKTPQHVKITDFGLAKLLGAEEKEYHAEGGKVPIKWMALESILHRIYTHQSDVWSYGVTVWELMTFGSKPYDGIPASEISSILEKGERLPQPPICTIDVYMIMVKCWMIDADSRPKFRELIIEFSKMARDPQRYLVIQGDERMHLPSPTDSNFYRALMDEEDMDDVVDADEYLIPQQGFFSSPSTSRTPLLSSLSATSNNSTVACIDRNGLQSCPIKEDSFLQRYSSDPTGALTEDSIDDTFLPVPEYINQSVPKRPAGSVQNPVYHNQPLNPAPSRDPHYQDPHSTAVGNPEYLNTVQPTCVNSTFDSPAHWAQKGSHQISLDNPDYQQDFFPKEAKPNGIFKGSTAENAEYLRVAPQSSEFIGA

Structure (SMILES) | IC50 [1] | IC50 [2] | IC50 (cells)
CCN=C(S)NNc1nncc2ccccc12 | 76 nM | 7.3 nM | 48 nM
CCN1C(=O)CS/C1=N/Nc1nncc2ccccc12 | 47 nM | 3.6 nM | 65 nM
S=C(NNc1nncc2ccccc12)Nc1ccc(Cl)cc1 | 64 nM | 6.1 nM | 20 nM
COc1ccc(/C=C/C(=N/Nc2nncc3ccccc23)c2ccc(Cl)cc2)cc1 | 5.4 nM | 0.41 nM | 1.2 nM
Cc1cc(NS(=O)(=O)c2ccc(Nc3nncc4ccccc34)cc2)no1 | 130 nM | 9.7 nM | 13 nM
Clc1ccc(/C=C/C(=N/Nc2nncc3ccccc23)c2ccccc2)cc1 | 4.6 nM | 0.55 nM | 2.6 nM
C(=C\c1ccccc1)/C(=N/Nc1nncc2ccccc12)c1ccccc1 | 5.6 nM | 0.42 nM | 1.4 nM
CCCCNC(=S)NNc1nncc2ccccc12 | 52 nM | 4.5 nM | 49 nM
CCOC(=O)c1ccc(Nc2nncc3ccccc23)cc1 | 4.4 nM | 0.54 nM | 2.7 nM
O=S(=O)(Nc1ncccn1)c1ccc(Nc2nncc3ccccc23)cc1 | 86 nM | 8.5 nM | 14 nM
O=C1CS/C(=N/Nc2nncc3ccccc23)N1c1ccc(Cl)cc1 | 42 nM | 2.7 nM | 42 nM
N#Cc1ccc(Nc2nncc3ccccc23)cc1 | 4.1 nM | 0.43 nM | 1.5 nM
CCCCN1C(=O)CS/C1=N/Nc1nncc2ccccc12 | 23 nM | 1.2 nM | 22 nM
S=C(NNc1nncc2ccccc12)Nc1ccccc1 | 65 nM | 6.2 nM | 39 nM
NS(=O)(=O)c1ccc(Nc2nncc3ccccc23)cc1 | 140 nM | 9.8 nM | 12 nM
COc1ccc(NC(=S)NNc2nncc3ccccc23)cc1 | 53 nM | 5.7 nM | 38 nM
O=C(O)c1ccc(Nc2nncc3ccccc23)cc1 | 6.2 nM | 0.68 nM | 3.92 nM
O=C1CS/C(=N/Nc2nncc3ccccc23)N1 | 51 nM | 4.4 nM | 57 nM
Cc1cc(C)nc(NS(=O)(=O)c2ccc(Nc3nncc4ccccc34)cc2)n1 | 6.7 nM | 0.77 nM | 3.5 nM
Fc1ccc(/C=C/C(=N/Nc2nncc3ccccc23)c2ccccc2)cc1 |  | 0.88 nM | 4.45 nM
Clc1ccc(C(/C=C/c2ccccc2)=N\Nc2nncc3ccccc23)cc1 | 6.3 nM | 0.69 nM | 3.3 nM
O=S(=O)(Nc1nccs1)c1ccc(Nc2nncc3ccccc23)cc1 | 88 nM | 8.6 nM | 15 nM
COc1ccc(N2C(=O)CS/C2=N/Nc2nncc3ccccc23)cc1 | 36 nM | 2.4 nM | 34 nM
NC(=S)NNc1nncc2ccccc12 | 77 nM | 7.5 nM | 37 nM
O=S(=O)(Nc1ccccn1)c1ccc(Nc2nncc3ccccc23)cc1 | 84 nM | 7.8 nM | 26 nM
Fc1ccc(Nc2nncc3ccccc23)cc1 | 6 nM | 0.67 nM | 2.8 nM
O=C1CS/C(=N/Nc2nncc3ccccc23)N1c1ccccc1 | 45 nM | 3.5 nM | 56 nM
Cc1ccc(C(/C=C/c2ccc(F)cc2)=N\Nc2nncc3ccccc23)cc1 | 6.5 nM | 0.7 nM | 3.4 nM
Oc1cc(O)c2cc(O)c(-c3cc(O)c(O)c(O)c3)[o+]c2c1 [DELPHINIDIN CHLORIDE] | 6.27 nM | 5.09 nM | 
